A value given as a limit tells only on which side of the number the result lay.

One assay concerns the target T1, Tyrosine-protein kinase receptor UFO (Homo sapiens, UniProt P30530).
T1 sequence (P30530 whole entry): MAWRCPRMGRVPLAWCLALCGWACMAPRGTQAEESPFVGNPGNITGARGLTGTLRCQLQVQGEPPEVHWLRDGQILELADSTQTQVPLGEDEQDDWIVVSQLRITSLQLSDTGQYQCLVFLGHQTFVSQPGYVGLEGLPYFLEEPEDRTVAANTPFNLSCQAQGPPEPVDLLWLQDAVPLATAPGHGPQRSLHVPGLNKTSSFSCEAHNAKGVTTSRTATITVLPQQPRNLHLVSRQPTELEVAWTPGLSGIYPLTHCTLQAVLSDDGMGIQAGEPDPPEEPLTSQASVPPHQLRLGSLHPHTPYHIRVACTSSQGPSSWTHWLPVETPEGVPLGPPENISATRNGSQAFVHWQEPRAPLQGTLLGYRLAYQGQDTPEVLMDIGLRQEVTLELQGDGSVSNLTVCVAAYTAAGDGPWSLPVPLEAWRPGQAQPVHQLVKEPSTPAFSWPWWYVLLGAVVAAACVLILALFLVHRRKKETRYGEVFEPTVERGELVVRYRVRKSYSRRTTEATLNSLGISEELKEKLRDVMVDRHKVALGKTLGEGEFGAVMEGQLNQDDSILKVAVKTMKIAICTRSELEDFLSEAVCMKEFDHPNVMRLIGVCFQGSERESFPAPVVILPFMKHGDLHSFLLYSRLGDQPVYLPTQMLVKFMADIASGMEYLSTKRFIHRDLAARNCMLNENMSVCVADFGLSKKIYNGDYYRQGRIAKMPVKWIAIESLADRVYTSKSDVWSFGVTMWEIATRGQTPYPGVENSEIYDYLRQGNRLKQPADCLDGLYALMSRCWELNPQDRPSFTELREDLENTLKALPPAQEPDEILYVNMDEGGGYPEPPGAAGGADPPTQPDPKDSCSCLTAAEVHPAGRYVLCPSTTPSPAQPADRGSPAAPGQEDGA
In words: Inhibition of Axl (unknown origin) by cell free assay.
As for `CC(C)n1cc(C(=O)Nc2ccc(Oc3ncnc4c3CN(C(=O)CC3CCN(C)CC3)C4)c(F)c2)c(=O)n(-c2ccc(F)cc2)c1=O`, the IC50 came to 3.4 nM.

In the case of `CN1CCC(CN2CCc3c(ncnc3Oc3ccc(NC(=O)c4cn(CCF)c(=O)n(-c5ccc(F)cc5)c4=O)cc3F)C2)CC1`, 8.5 nM corresponded to half-maximal inhibition (IC50).

Molecule `CN1CCC(CN2CCc3c(ncnc3Oc3ccc(NC(=O)c4cn(CC5CC5)c(=O)n(-c5ccc(F)cc5)c4=O)cc3F)C2)CC1` returned an IC50 of 1.9 nM.

Molecule `CC(C)n1cc(C(=O)Nc2ccc(Oc3ncnc4c3CCN(C3CN(C)C3)C4)c(F)c2)c(=O)n(-c2ccc(F)cc2)c1=O` yielded an IC50 of 3.8 nM.

Another assay deals with T2, Tyrosine-protein kinase Mer (Homo sapiens, UniProt Q12866).
T2 sequence (Q12866 whole entry): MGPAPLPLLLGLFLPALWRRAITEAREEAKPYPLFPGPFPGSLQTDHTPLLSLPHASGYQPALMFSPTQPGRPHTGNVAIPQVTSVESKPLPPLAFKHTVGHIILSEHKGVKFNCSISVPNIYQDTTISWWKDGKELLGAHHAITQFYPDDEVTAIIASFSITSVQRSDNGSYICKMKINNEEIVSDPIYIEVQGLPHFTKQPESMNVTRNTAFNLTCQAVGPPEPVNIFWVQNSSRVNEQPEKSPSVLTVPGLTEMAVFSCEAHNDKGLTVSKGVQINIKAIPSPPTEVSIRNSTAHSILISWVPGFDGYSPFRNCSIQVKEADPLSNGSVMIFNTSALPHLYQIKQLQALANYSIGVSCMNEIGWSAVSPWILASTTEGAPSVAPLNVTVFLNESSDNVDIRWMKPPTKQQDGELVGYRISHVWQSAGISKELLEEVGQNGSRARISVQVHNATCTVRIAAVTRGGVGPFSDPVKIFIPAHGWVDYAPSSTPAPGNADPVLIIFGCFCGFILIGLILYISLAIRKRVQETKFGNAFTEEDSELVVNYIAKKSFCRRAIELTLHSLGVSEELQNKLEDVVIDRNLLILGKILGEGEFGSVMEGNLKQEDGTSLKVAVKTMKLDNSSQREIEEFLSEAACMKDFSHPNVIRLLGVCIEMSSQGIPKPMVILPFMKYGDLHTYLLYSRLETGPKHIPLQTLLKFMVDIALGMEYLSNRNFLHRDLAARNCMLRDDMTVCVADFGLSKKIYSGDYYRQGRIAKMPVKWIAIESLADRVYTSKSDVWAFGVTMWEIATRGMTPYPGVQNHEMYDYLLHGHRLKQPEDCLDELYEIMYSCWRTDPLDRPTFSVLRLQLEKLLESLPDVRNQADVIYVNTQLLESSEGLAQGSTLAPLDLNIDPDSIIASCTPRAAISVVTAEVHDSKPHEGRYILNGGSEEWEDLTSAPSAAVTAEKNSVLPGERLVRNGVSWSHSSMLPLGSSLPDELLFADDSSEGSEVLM
In words: Inhibition of Mer (unknown origin) by cell free assay.
Molecule `CC(C)n1cc(C(=O)Nc2ccc(Oc3ncnc4c3CN(C(=O)CC3CCN(C)CC3)C4)c(F)c2)c(=O)n(-c2ccc(F)cc2)c1=O` showed an IC50 of under 4.1 nM.

`CN1CCC(CN2CCc3c(ncnc3Oc3ccc(NC(=O)c4cn(CCF)c(=O)n(-c5ccc(F)cc5)c4=O)cc3F)C2)CC1` returned an IC50 of 150 nM.

Turning to `CN1CCC(CN2CCc3c(ncnc3Oc3ccc(NC(=O)c4cn(CC5CC5)c(=O)n(-c5ccc(F)cc5)c4=O)cc3F)C2)CC1`, the IC50 amounted to 62 nM.

Molecule `CC(C)n1cc(C(=O)Nc2ccc(Oc3ncnc4c3CCN(C3CN(C)C3)C4)c(F)c2)c(=O)n(-c2ccc(F)cc2)c1=O` came in with an IC50 of 27 nM.

The species entered for the next assay is Homo sapiens. Description: Ratio of IC50 for Mer (unknown origin) to IC50 for Axl (unknown origin).
With `CC(C)n1cc(C(=O)Nc2ccc(Oc3ncnc4c3CN(C(=O)CC3CCN(C)CC3)C4)c(F)c2)c(=O)n(-c2ccc(F)cc2)c1=O`, the Ratio IC50 was under 1.2.

Turning to `CN1CCC(CN2CCc3c(ncnc3Oc3ccc(NC(=O)c4cn(CCF)c(=O)n(-c5ccc(F)cc5)c4=O)cc3F)C2)CC1`, the Ratio IC50 amounted to 18.

As to `CN1CCC(CN2CCc3c(ncnc3Oc3ccc(NC(=O)c4cn(CC5CC5)c(=O)n(-c5ccc(F)cc5)c4=O)cc3F)C2)CC1`, the Ratio IC50 is 33.

As for `CC(C)n1cc(C(=O)Nc2ccc(Oc3ncnc4c3CCN(C3CN(C)C3)C4)c(F)c2)c(=O)n(-c2ccc(F)cc2)c1=O`, the Ratio IC50 stood at 7.1.

In a further assay the target is T3, Tyrosine-protein kinase receptor UFO (Mus musculus, UniProt Q00993).
T3 sequence (Q00993 whole entry): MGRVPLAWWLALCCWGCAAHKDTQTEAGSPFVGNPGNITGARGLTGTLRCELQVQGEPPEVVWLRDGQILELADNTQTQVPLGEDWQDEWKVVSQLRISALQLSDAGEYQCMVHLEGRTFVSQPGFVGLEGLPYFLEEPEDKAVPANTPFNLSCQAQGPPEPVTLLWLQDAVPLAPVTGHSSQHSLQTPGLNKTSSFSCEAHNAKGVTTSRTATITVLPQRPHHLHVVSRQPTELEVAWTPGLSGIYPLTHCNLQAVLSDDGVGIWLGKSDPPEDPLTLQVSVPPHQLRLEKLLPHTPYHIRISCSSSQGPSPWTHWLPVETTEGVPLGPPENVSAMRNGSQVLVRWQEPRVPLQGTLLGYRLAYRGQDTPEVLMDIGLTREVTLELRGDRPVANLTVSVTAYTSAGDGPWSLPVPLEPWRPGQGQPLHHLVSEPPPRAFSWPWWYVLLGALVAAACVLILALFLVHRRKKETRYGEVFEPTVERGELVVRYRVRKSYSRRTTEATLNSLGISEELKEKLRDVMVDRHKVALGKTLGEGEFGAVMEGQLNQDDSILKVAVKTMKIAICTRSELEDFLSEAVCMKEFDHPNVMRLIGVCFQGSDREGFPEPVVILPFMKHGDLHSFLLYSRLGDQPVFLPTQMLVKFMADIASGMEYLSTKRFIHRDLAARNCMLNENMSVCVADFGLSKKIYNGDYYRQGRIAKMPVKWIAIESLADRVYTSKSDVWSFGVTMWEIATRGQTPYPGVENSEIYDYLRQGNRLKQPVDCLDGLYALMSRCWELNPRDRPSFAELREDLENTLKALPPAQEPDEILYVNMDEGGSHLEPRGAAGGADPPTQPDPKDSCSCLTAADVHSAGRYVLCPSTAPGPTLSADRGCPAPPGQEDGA
In words: Inhibition of Axl in mouse BaF3 cells. In kind it is cell-based.
`CC(C)n1cc(C(=O)Nc2ccc(Oc3ncnc4c3CN(C(=O)CC3CCN(C)CC3)C4)c(F)c2)c(=O)n(-c2ccc(F)cc2)c1=O` registered an IC50 of 17 nM.

As for `CN1CCC(CN2CCc3c(ncnc3Oc3ccc(NC(=O)c4cn(CCF)c(=O)n(-c5ccc(F)cc5)c4=O)cc3F)C2)CC1`, the IC50 came out at 49 nM.

`CN1CCC(CN2CCc3c(ncnc3Oc3ccc(NC(=O)c4cn(CC5CC5)c(=O)n(-c5ccc(F)cc5)c4=O)cc3F)C2)CC1` yielded an IC50 of 8.4 nM.

For `CC(C)n1cc(C(=O)Nc2ccc(Oc3ncnc4c3CCN(C3CN(C)C3)C4)c(F)c2)c(=O)n(-c2ccc(F)cc2)c1=O`, the IC50 amounted to 5.3 nM.

The next assay addresses T4, Tyrosine-protein kinase Mer (Mus musculus, UniProt Q60805).
T4 sequence (Q60805 whole entry): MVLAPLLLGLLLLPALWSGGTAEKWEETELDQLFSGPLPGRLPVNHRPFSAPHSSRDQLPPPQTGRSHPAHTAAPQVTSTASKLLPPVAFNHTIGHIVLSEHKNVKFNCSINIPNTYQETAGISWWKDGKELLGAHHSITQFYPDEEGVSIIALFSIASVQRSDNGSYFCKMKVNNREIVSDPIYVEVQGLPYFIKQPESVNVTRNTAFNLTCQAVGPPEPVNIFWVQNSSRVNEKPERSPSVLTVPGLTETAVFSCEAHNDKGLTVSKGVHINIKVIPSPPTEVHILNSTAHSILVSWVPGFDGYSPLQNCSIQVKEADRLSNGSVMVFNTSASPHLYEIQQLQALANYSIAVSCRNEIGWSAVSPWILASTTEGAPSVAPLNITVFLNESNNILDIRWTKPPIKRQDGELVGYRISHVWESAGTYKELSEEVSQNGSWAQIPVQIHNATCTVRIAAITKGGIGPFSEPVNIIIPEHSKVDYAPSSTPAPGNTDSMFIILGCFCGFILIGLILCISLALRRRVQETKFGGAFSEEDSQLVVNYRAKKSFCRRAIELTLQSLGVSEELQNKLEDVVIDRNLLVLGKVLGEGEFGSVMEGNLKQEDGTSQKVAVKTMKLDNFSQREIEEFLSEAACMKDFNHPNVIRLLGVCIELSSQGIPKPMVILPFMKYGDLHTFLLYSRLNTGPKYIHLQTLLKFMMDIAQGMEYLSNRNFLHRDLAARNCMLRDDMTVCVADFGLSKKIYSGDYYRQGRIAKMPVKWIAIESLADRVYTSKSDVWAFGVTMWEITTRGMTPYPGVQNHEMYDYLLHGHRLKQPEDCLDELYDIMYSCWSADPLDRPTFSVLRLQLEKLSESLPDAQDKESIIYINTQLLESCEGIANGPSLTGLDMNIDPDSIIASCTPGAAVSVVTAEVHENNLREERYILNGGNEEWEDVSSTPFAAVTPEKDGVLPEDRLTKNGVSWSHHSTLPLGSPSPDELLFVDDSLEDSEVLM
In words: Inhibition of Mer in mouse BaF3 cells. In kind it is cell-based.
The molecule `CC(C)n1cc(C(=O)Nc2ccc(Oc3ncnc4c3CN(C(=O)CC3CCN(C)CC3)C4)c(F)c2)c(=O)n(-c2ccc(F)cc2)c1=O` had a concentration for half-maximal inhibition (IC50) of 39 nM.

For the molecule `CN1CCC(CN2CCc3c(ncnc3Oc3ccc(NC(=O)c4cn(CCF)c(=O)n(-c5ccc(F)cc5)c4=O)cc3F)C2)CC1`, the IC50 stood at 130 nM. This IC50 is about 3.3-fold higher than that of the molecule before.

On to `CN1CCC(CN2CCc3c(ncnc3Oc3ccc(NC(=O)c4cn(CC5CC5)c(=O)n(-c5ccc(F)cc5)c4=O)cc3F)C2)CC1`, for which the IC50 came out at 51 nM.

`CC(C)n1cc(C(=O)Nc2ccc(Oc3ncnc4c3CCN(C3CN(C)C3)C4)c(F)c2)c(=O)n(-c2ccc(F)cc2)c1=O` displayed an IC50 of 24 nM.

The subject of another assay is BaF3. In words: Ratio of IC50 for Mer in mouse BaF3 cells to IC50 for Axl in mouse BaF3 cells. In kind it is cell-based.
With `CC(C)n1cc(C(=O)Nc2ccc(Oc3ncnc4c3CN(C(=O)CC3CCN(C)CC3)C4)c(F)c2)c(=O)n(-c2ccc(F)cc2)c1=O`, the Ratio IC50 was found to be 2.3.

Consider `CN1CCC(CN2CCc3c(ncnc3Oc3ccc(NC(=O)c4cn(CCF)c(=O)n(-c5ccc(F)cc5)c4=O)cc3F)C2)CC1`, for which the Ratio IC50 is 2.7.

With `CN1CCC(CN2CCc3c(ncnc3Oc3ccc(NC(=O)c4cn(CC5CC5)c(=O)n(-c5ccc(F)cc5)c4=O)cc3F)C2)CC1`, the Ratio IC50 is 6.1.

As to `CC(C)n1cc(C(=O)Nc2ccc(Oc3ncnc4c3CCN(C3CN(C)C3)C4)c(F)c2)c(=O)n(-c2ccc(F)cc2)c1=O`, the Ratio IC50 amounted to 4.5.

By IC50 is commonly meant the concentration needed to halve the response being measured. A low value points to greater potency.

Source of the values: ChEMBL document CHEMBL4823291, “Discovery of 5,6,7,8-tetrahydropyrido[3,4-d]pyrimidine derivatives as novel selective Axl inhibitors” (Bioorg Med Chem Lett, 2021).
